Measurements as given in patent US20120077883A1, “TREATMENT OF TINNITUS AND ASSOCIATED AUDITORY DYSFUNCTIONS” (priority 2009, published 2012).
Like-named read-outs stand apart in the source and are kept apart here.

Key:
fibromyalgia patients = details: 10 to 40 mg over a 12 week period; cited from earlier work
subjects with tinnitus = tested on: subjects with tinnitus
Source text: Four selected outcome variables were used in this preliminary analysis: Global improvement (GI), Tinnitus Handicap Inventory (THI) and Tinnitus Impairment Questionnaire (TBF 12) questionnaires and Minimum Masking Levels (MML). The changes on the outcome variables were obtained by subtracting week 12's scores from the screening scores. The presence of a negative result means a decrease on values.
In Table 2 the changes on outcome variables are listed by Global Improvement (GI) classification, as follows: GI 1=much better; 2=better; 3=slightly better; 4=no change; 5=slightly worse; 6=worse; 7=much worse; THI: Tinnitus Handicap Inventory, TBF 12: Tinnitus Impairment Questionnaire; MML: minimal masking levels, measured in dB HL (Hearing Level).
Four different criteria were established to determine whether a subject responded or not to treatment (see Table 3).

[1] = Criteria 1: improvement on GI, 15 subjects
[2] = Criteria 2: Criteria 1 + decrease on THI
[3] = Criteria 3: Criteria 2 + decrease on TBF 12
[4] = Criteria 4: Criteria 3 + decrease on MML

## CN(C)CCC=C1c2ccccc2C=Cc2ccccc21 [Cyclobenzaprine]
Fibromyalgia patients
  Quality of sleep and pain score: significantly improved
  Total number of tender points and muscle tightness: reduction
Subjects with tinnitus; 15 subjects, oral 15-30 mg/day
  Most frequent side effects: dry mouth and constipation
Subjects with tinnitus; Criteria 1: improvement on GI
  Non responders %: 26.7%
  Non responders n: 4
Subjects with tinnitus; [1]
  Responders %: 73.3%
  Responders n: 11
Subjects with tinnitus; [2]
  Non responders %: 26.4%
  Non responders n: 4
  Responders %: 73.3%
  Responders n: 11
Subjects with tinnitus; [3]
  Non responders %: 33.3%
  Non responders n: 5
  Responders %: 66.6%
  Responders n: 10
Subjects with tinnitus; [4]
  Non responders %: 46.7%
  Non responders n: 7
  Responders %: 53.3%
  Responders n: 8
Subjects with tinnitus; FIG. 1, 15 subjects
  Subjects Better or Much Better on GI: 8 subjects
Subjects with tinnitus; common side effects like constipation and dry mouth
  Tolerability: tolerated well by most subjects
Subjects with tinnitus; described by many patients
  Sleep and muscle relaxation: Improvement on sleep and muscle relaxation
Subjects with tinnitus; human, in vivo
  Subjects with changes on tinnitus pitch: 5 out of 15 subjects
Subjects with tinnitus; one subject, week 8
  Side effect that led one subject to interrupt the study: severe constipation
Subjects with tinnitus; oral, 30 mg/day
  Results in tinnitus at a dosage of 30 mg/day: Excellent results
Subjects with tinnitus; subject 3, intermittent tinnitus
  Tinnitus change noticed where MML was not possible to measure: change on intensity and less episodes
Subjects with tinnitus; subjects 4, 8, 9, 10 and 11, FIGS. 2-6
  Progression of Minimum Masking Levels (MML) during the tests: progressive reduction
Subjects with tinnitus; tested subjects
  Effect on tinnitus severity and tinnitus loudness: positive effect
Subjects with tinnitus; weaned off after 12 weeks
  Tinnitus after treatment was weaned off: got worse in some patients
